≈ marks a conversion by molar mass, not a printed value.
What was measured:
Test in all cases: ≥ marks a high value that may be exact or a test limit, other limits are often not marked, values filed in µg/mL are converted to µM
[1] = system: Escherichia coli B
[2] = system: Bacillus subtilis 168
[3] = system: Staphylococcus aureus
[4] = system: Pseudomonas aeruginosa
[5] = system: Staphylococcus aureus ATCC 25923
[6] = system: Staphylococcus aureus ATCC 2592
[7] = system: Candida albicans ATCC 2002
[8] = system: Salmonella enterica subsp. enterica serovar Typhi
[9] = system: Bacillus subtilis
[10] = system: Escherichia coli
[11] = system: Candida albicans ATCC 90028
[12] = system: Pseudomonas aeruginosa ATCC 27853
[13] = system: Enterobacter cloacae
[14] = system: Klebsiella pneumoniae
[15] = system: Staphylococcus aureus NCTC 8325-4
[16] = system: Pseudomonas aeruginosa PAO1
[17] = system: Escherichia coli K-12
[18] = system: Bacillus cereus
[19] = system: Bacillus anthracis
[20] = system: Staphylococcus aureus ATCC 29213
[21] = system: Listeria innocua
[22] = system: Micrococcus luteus
[23] = system: Staphylococcus epidermidis
[24] = system: Pasteurella multocida
[25] = system: Streptococcus uberis
[26] = system: Enterococcus faecalis
[27] = system: Leuconostoc lactis
[28] = system: Enterococcus faecalis CGMCC 1.595
[29] = system: Pseudomonas aeruginosa CGMCC 1.860
[30] = system: Staphylococcus aureus AS1.72
[31] = system: Enterococcus faecium CGMCC 1.2334
[32] = system: Bacillus cereus AS1.126
[33] = system: Escherichia coli AS1.349
[34] = system: Lactococcus lactis AS1.1690
[35] = system: Escherichia coli ATCC 25922
[36] = system: Micrococcus luteus A270

## CC[C@H](C)[C@H](NC(=O)[C@H](CCCCN)NC(=O)[C@H](CCCCN)NC(=O)[C@H](CC(C)C)NC(=O)[C@@H](NC(=O)[C@H](CCCCN)NC(=O)[C@H](CCCCN)NC(=O)[C@H](Cc1c[nH]c2ccccc12)NC(=O)[C@H](CC(N)=O)NC(=O)[C@@H](N)C(C)C)C(C)C)C(=O)N[C@H](C(=O)N[C@@H](CCCCN)C(=O)N[C@H](C(=O)N[C@@H](C)C(=O)N[C@@H](CCCCN)C(N)=O)C(C)C)[C@@H](C)CC [VNWKKVLKKIIKVAK]
[1]
  MIC: 0.7 µM (≈ 1.26 µg/mL)
[2]
  MIC: 0.7 µM (≈ 1.26 µg/mL)
[3]
  MIC: 15.6 µM (≈ 28 µg/mL)
[4]
  MIC: 19 µM (≈ 34.1 µg/mL)

## CC(C)C[C@H](NC(=O)[C@H](CCCCN)NC(=O)[C@H](CCCN=C(N)N)NC(=O)[C@H](Cc1ccccc1)NC(=O)[C@H](Cc1ccccc1)NC(=O)[C@H](CCCCN)NC(=O)[C@H](CCCCN)NC(=O)[C@H](Cc1ccccc1)NC(=O)[C@H](CCCN=C(N)N)NC(=O)[C@H](CCCCN)NC(=O)[C@@H](N)C(C)C)C(=O)N[C@@H](CCCCN)C(=O)N[C@@H](CCCCN)C(=O)N[C@@H](CO)C(=O)N[C@H](C(N)=O)C(C)C [VKRFKKFFRKLKKSV]
[5]
  MIC: 0.516 µM (≈ 0.999 µg/mL)
[6]
  MIC: ≥ 51.6 µM
[7]
  MIC: 9.67 µM (≈ 18.7 µg/mL)
[8]
  MIC: 1.03 µM (≈ 2 µg/mL)
[9]
  MIC: ≥ 38.7 µM
[10]
  MIC: 8.25 µM (≈ 16 µg/mL)
[11]
  MIC: ≥ 33 µM
[3]
  MIC: 8.25 µM (≈ 16 µg/mL)
[12]
  MIC: 16.5 µM (≈ 32 µg/mL)
[13]
  MIC: 4.12 µM (≈ 8 µg/mL)
[4]
  MIC: 8.25 µM (≈ 16 µg/mL)

## CC(C)C[C@H](NC(=O)[C@H](CC(C)C)NC(=O)[C@H](CCCCN)NC(=O)[C@H](CCCCN)NC(=O)[C@H](CC(C)C)NC(=O)[C@H](CC(C)C)NC(=O)[C@H](CCCCN)NC(=O)[C@H](CCCCN)NC(=O)[C@@H](N)CC(C)C)C(=O)N[C@@H](CCCCN)C(N)=O [LKKLLKKLLK]
[14]
  MIC: > 500 µM
[15]
  MIC: ≥ 500 µM
[16]
  MIC: 62.5 µM (≈ 76.5 µg/mL)
[17]
  MIC: 31.3 µM (≈ 38.3 µg/mL)

## CC[C@H](C)[C@H](NC(=O)[C@H](CC(C)C)NC(=O)[C@H](CCCCN)NC(=O)[C@H](CCSC)NC(=O)[C@@H](NC(=O)[C@H](C)NC(=O)[C@H](C)NC(=O)[C@H](CCCN=C(N)N)NC(=O)[C@H](CCCCN)NC(=O)[C@H](Cc1ccccc1)NC(=O)[C@H](Cc1ccccc1)NC(=O)[C@H](CC(C)C)NC(=O)[C@@H](NC(=O)[C@H](C)NC(=O)CNC(=O)[C@@H](NC(=O)[C@H](CO)NC(=O)[C@@H]1CCCN1C(=O)[C@@H](NC(=O)[C@@H](N)CO)C(C)C)C(C)C)C(C)C)C(C)C)C(=O)O [SVPSVGAVLFFKRAAVMKLI]
[10]
  MIC: > 120 µM
[18]
  MIC: ≥ 120 µM
[19]
  MIC: ≥ 120 µM
[3]
  MIC: > 120 µM

## CC[C@H](C)[C@H](NC(=O)[C@@H](NC(=O)[C@@H]1CCCN1C(=O)[C@H](C)NC(=O)[C@@H](NC(=O)[C@H](Cc1cnc[nH]1)NC(=O)[C@@H]1CCCN1C(=O)[C@H](CC(C)C)NC(=O)[C@H](CC(C)C)NC(=O)[C@H](Cc1cnc[nH]1)NC(=O)[C@H](CCCCN)NC(=O)[C@H](C)NC(=O)[C@@H](NC(=O)[C@H](CO)NC(=O)CNC(=O)[C@H](CC(C)C)NC(=O)[C@@H](NC(=O)[C@H](CO)NC(=O)[C@H](Cc1ccccc1)NC(=O)[C@H](CC(C)C)NC(=O)CN)C(C)C)C(C)C)C(C)C)[C@@H](C)CC)C(=O)N[C@@H](C)C(=O)N[C@@H](CCC(=O)O)C(=O)N[C@@H](CCCCN)C(=O)N[C@@H](CC(C)C)C(N)=O [GLFSVLGSVAKHLLPHVAPIIAEKL]
[5]
  MIC: 19.2 µM (≈ 50 µg/mL)
[20]
  MIC: 4.6 µM (≈ 12 µg/mL)
[21]
  MIC: 9.58 µM (≈ 25 µg/mL)
[22]
  MIC: 4.6 µM (≈ 12 µg/mL)
[23]
  MIC: 4.6 µM (≈ 12 µg/mL)
[10]
  MIC: > 38.3 µM
[18]
  MIC: ≥ 38.3 µM
[24]
  MIC: 9.58 µM (≈ 25 µg/mL)
[25]
  MIC: 9.58 µM (≈ 25 µg/mL)
[26]
  MIC: ≥ 38.3 µM
[27]
  MIC: 1.15 µM (≈ 3 µg/mL)
[13]
  MIC: ≥ 38.3 µM
[4]
  MIC: > 38.3 µM

## CC(C)[C@H](N)C(=O)N[C@@H](Cc1c[nH]c2ccccc12)C(=O)N[C@@H](CCCN=C(N)N)C(=O)N[C@@H](CCCN=C(N)N)C(=O)N[C@@H](Cc1c[nH]c2ccccc12)C(=O)N[C@@H](CCCN=C(N)N)C(=O)N[C@@H](CCCN=C(N)N)C(=O)N[C@@H](Cc1ccccc1)C(=O)N[C@@H](Cc1c[nH]c2ccccc12)C(=O)O [VWRRWRRFW]
[28]
  MIC: 12.5 µM (≈ 18.1 µg/mL)
[29]
  MIC: 6.25 µM (≈ 9.05 µg/mL)
[30]
  MIC: 12.5 µM (≈ 18.1 µg/mL)
[31]
  MIC: 12.5 µM (≈ 18.1 µg/mL)
[32]
  MIC: 6.25 µM (≈ 9.05 µg/mL)
[33]
  MIC: 12.5 µM (≈ 18.1 µg/mL)
[34]
  MIC: 12.5 µM (≈ 18.1 µg/mL)

## CC(C)C[C@H](NC(=O)[C@H](CCCCN)NC(=O)[C@H](CCCN=C(N)N)NC(=O)[C@H](Cc1ccccc1)NC(=O)[C@H](Cc1ccccc1)NC(=O)[C@H](CCCCN)NC(=O)[C@H](CCCCN)NC(=O)[C@H](Cc1ccccc1)NC(=O)[C@H](CCCN=C(N)N)NC(=O)[C@H](CCCCN)NC(=O)[C@@H](N)C(C)C)C(=O)N[C@@H](CCCCN)C(=O)N[C@@H](CCCCN)C(=O)N[C@@H](CO)C(=O)N[C@H](C(=O)N[C@@H](CCCCN)C(N)=O)C(C)C [VKRFKKFFRKLKKSVK]
[5]
  MIC: 0.967 µM (≈ 2 µg/mL)
[8]
  MIC: 1.93 µM (≈ 4 µg/mL)
[35]
  MIC: 1.93 µM (≈ 4 µg/mL)
[9]
  MIC: 31 µM (≈ 64 µg/mL)
[10]
  MIC: 31 µM (≈ 64 µg/mL)
[11]
  MIC: 31 µM (≈ 64 µg/mL)
[3]
  MIC: 61.9 µM (≈ 128 µg/mL)
[12]
  MIC: 31 µM (≈ 64 µg/mL)
[13]
  MIC: 31 µM (≈ 64 µg/mL)
[4]
  MIC: 7.74 µM (≈ 16 µg/mL)

## CC(C)C[C@H](NC(=O)[C@H](CCCCN)NC(=O)[C@H](CCCN=C(N)N)NC(=O)[C@H](Cc1ccccc1)NC(=O)[C@H](Cc1ccccc1)NC(=O)[C@H](CCCCN)NC(=O)[C@H](CCCCN)NC(=O)[C@H](Cc1ccccc1)NC(=O)[C@H](CCCN=C(N)N)NC(=O)[C@H](CCCCN)NC(=O)[C@@H](N)C(C)C)C(=O)N[C@@H](CCCCN)C(=O)N[C@@H](CCCCN)C(=O)N[C@@H](CO)C(=O)N[C@H](C(=O)N[C@@H](CCCCN)C(=O)N[C@@H](CCCCN)C(N)=O)C(C)C [VKRFKKFFRKLKKSVKK]
[5]
  MIC: 0.911 µM (≈ 2 µg/mL)
[8]
  MIC: 1.82 µM (≈ 4 µg/mL)
[35]
  MIC: 3.64 µM (≈ 8 µg/mL)
[9]
  MIC: 29.1 µM (≈ 64 µg/mL)
[10]
  MIC: 29.1 µM (≈ 64 µg/mL)
[11]
  MIC: 29.1 µM (≈ 64 µg/mL)
[3]
  MIC: 58.3 µM (≈ 128 µg/mL)
[12]
  MIC: 29.1 µM (≈ 64 µg/mL)
[13]
  MIC: ≥ 58.3 µM
[4]
  MIC: 7.29 µM (≈ 16 µg/mL)

## CC(C)C[C@H](NC(=O)[C@H](CO)NC(=O)[C@H](Cc1cnc[nH]1)NC(=O)[C@H](CO)NC(=O)[C@H](CC(C)C)NC(=O)[C@@H](N)CC(C)C)C(=O)O [LLSHSL]
[21]
  MIC: ≥ 187 µM
[36]
  MIC: ≥ 46.8 µM
[10]
  MIC: 46.8 µM (≈ 31.3 µg/mL)

## CC(C)C[C@H](NC(=O)[C@H](CCCCN)NC(=O)[C@H](Cc1ccccc1)NC(=O)[C@H](CC(C)C)NC(=O)[C@@H](NC(=O)[C@@H]1CCCN1C(=O)[C@@H](N)CC(C)C)C(C)C)C(=O)N[C@@H](C)C(=O)N[C@@H](CO)C(=O)N[C@@H](CCCCN)C(=O)N[C@H](C(=O)N[C@@H](Cc1ccccc1)C(=O)N1CCC[C@H]1C(=O)N[C@@H](C)C(=O)N[C@H](C(=O)N[C@@H](Cc1ccccc1)C(=O)N[C@@H](CO)C(=O)N[C@@H](CO)C(=O)N[C@@H](CC(C)C)C(=O)N[C@@H](CCCCN)C(=O)O)C(C)C)C(C)C [LPVLFKLASKVFPAVFSSLK]
[10]
  MIC: 117 µM (≈ 256 µg/mL)
[18]
  MIC: 29.2 µM (≈ 64 µg/mL)
[19]
  MIC: ≥ 58.4 µM
[3]
  MIC: 58.4 µM (≈ 128 µg/mL)

From DBAASP
